Measured values taken from ChEMBL document CHEMBL4229569, “Structure-Based Design of 1-Heteroaryl-1,3-propanediamine Derivatives as a Novel Series of CC-Chemokine Receptor 5 Antagonists” (J Med Chem, 2018).

What was measured:
Canis familiaris [1] = test: AUC (0 to infinity) in dog at 2 mg/kg, po by LC-MS/MS analysis; assay type: ADME, organism-based, Canis lupus familiaris; set-up: dose 2 mg/kg, route oral, time infinity; settings: in vivo
[2] = Cmax in Sprague-Dawley rat at 10 mg/kg, po by LC-MS/MS analysis; assay type: ADME, organism-based; set-up: dose 10 mg/kg, route oral; settings: in vivo
[3] = Cytotoxicity against human TZM-bl cells after 48 hrs by MTT assay; assay type: cell-based
[4] = Cmax in dog at 2 mg/kg, po by LC-MS/MS analysis; assay type: ADME, organism-based, Canis lupus familiaris; set-up: dose 2 mg/kg, route oral; settings: in vivo
Hepatocyte [5] = test: Metabolic stability in dog hepatocytes assessed as compound remaining by UPLC/Q-TOF mass spectrometric analysis; assay type: ADME, cell-based, Canis lupus familiaris
[6] = Tmax in dog at 2 mg/kg, po by LC-MS/MS analysis; assay type: ADME, organism-based, Canis lupus familiaris; settings: in vivo
Canis familiaris [7] = test: Clearance in dog at 0.5 mg/kg, iv by LC-MS/MS analysis; assay type: ADME, organism-based, Canis lupus familiaris; settings: in vivo
Hepatocyte [8] = test: Metabolic stability in human hepatocytes assessed as compound remaining by UPLC/Q-TOF mass spectrometric analysis; assay type: ADME, cell-based
[9] = AUC in rat at 10 mg/kg, po administered as single dose; assay type: ADME, organism-based; settings: in vivo
Canis familiaris [10] = test: Oral bioavailability in dog at 2 mg/kg by LC-MS/MS analysis; assay type: ADME, organism-based, Canis lupus familiaris; settings: in vivo
Rattus norvegicus = test: Tmax in Sprague-Dawley rat at 10 mg/kg, po by LC-MS/MS analysis; assay type: ADME, organism-based; settings: in vivo
Hepatocyte [11] = test: Metabolic stability in rat hepatocytes assessed as compound remaining by UPLC/Q-TOF mass spectrometric analysis; assay type: ADME, cell-based

Q: What does the source list for `Cc1nnc(C(C)C)n1[C@@H]1C[C@H]2CC[C@@H](C1)N2CC[C@H](NC(=O)C1CCC(F)(F)CC1)c1ccccc1` [MARAVIROC]?
A: AUC (Canis familiaris [1]): 583 ng·h/mL; Cmax [2]: 5.5 ng/mL; CC50 at 48 h [3]: > 200 µM; Cmax [4]: 256 ng/mL; Stability (Hepatocyte [5]): 45%; Tmax [6]: 45 min; clearance (Canis familiaris [7]): 21 mL/min/kg; Stability (Hepatocyte [8]): 33%; AUC [9]: 12.4 ng·h/mL; F (Canis familiaris [10]): 40%; Tmax (Rattus norvegicus): 120 min; Stability (Hepatocyte [11]): 79%
